The source of these data is patent US20240228467A1, “INDIRUBIN COMPOUNDS AND METHODS THEREOF” (JAWAHARLAL NEHRU CENTRE FOR ADVANCED SCIENTIFIC RESEARCH, priority 2021, published 2024).

This experiment relates to HeLa and/or SH-SY5Y cells. Kind of experiment: Autophagic flux, RFP-EGFP-LC3 assay (fluorescent analysis, FIG. 1). The class given is cell-based. To be noted: compared to the growth media control. The text has this:
Autophagic flux refers to a measure of autophagic degradation activity. FIG. 1 depicts the fluorescent analysis of the autophagic flux in the presence of 6-bromoindirubin oxime (6-BIO), 6-MIO, and compounds of Formula I—compounds ‘a’ and ‘m’. FIG. 1 depicts that both autophagosomes and autolysosomes are increased with the compounds of Formula I when compared to the growth media control.
The assays were essentially performed as follows: RFP-EGFP-LC3 assay: sub-confluent HeLa and/or SH-SY5Y cells were seeded into 60 mm cell culture dishes, then transfected with ptf LC3 construct and/or siRNA and allowed to express for 48 h. Cells were trypsinized, seeded again on poly-D-lysine coated cover slips in a 12 or 24 well plates and allowed to attach. After appropriate treatments, the coverslips containing cells were processed for imaging. For immunofluorescent antibody staining, the cover slips were incubated in primary antibody at 4° C. for overnight followed by secondary antibody incubation at room temperature. For imaging the mammalian cells, after appropriate treatments, coverslips containing cells were fixed using 4% paraformaldehyde (PFA; Sigma) and then permeabilized using Triton X-100 (0.2%, HiMedia). Coverslips were mounted on slide using antifade, Vectashield mounting medium (Vector Laboratories). Images were acquired using DeltaVision Elite widefieldmicroscope (API, GE) with following filters: FITC (490/20 and 529/38), TRITC (542/27 and 594/45) and Cy5 (632/22 and 676/34). Acquired images were processed using DV softWoRX software. In this standard assay, the autophagosomes would appear as yellow whereas autolysosomes would be red as EGFP gets quenched at lysosomal acidic pH6.

As to `O=C1Nc2cc(Br)ccc2/C1=C1/Nc2ccccc2/C1=N\O.[Li]` [a, (2Z,3E)-6′-bromo-3-(hydroxyimino)-[2,3′-biindolinylidene]-2′-one lithium salt], the autolysosomes entry is listed as “increased” and the autophagosomes result is “increased”.

As to `O=C1Nc2cc(Br)ccc2/C1=C1/Nc2ccccc2/C1=N\OCCO` [m, (2Z,3E)-6′-bromo 3-((2-hydroxyethoxy)imino)-[2,3′-biindolinylidene]-2′-one], the autolysosomes entry is listed as “increased” and the autophagosomes entry is given as “increased”.
